{"source": "patent US7772179B2", "about": "“Photodynamic therapy using chemiluminescence and a ligand-photosensitiser conjugate” (priority 2005, dated 2010)", "key": {"FL cells [1]": {"system": "FL cells", "experiment": "LTC cytotoxicity assay (PDT with ambient fluorescent light), trypan blue exclusion", "assay_type": "cell-based", "description": "(§1) (C); 0.5-1×10^5 cells/ml were cultured for 2 hr in the dark in medium alone or containing Hp or Tf-Hp (0-3 μM), washed, exposed to ambient fluorescent light for 16 hrs at room temperature and then re-cultured in full medium for 24 hrs. Cell viability was assessed by trypan blue exclusion. The data represent the mean and standard deviation from at least 3 experiments;\n(§2) Late log-phase cells were washed with DMEM pre-warmed to 37° C. and cultured at 0.5-1×10^5 cells/ml either alone or with increasing concentrations of Tf-Hp LTC for 2 hrs at 37° C. in 6% CO2. Cells were then washed with DMEM, exposed to ambient fluorescent light (fluence rate=0.5 mW/cm^2) for 12-16 hours and then re-cultured in full medium for 24 hrs. […] Experiments were repeated at least three times."}, "K562 cells": {"system": "K562 cells", "experiment": "LTC cytotoxicity assay (PDT with ambient fluorescent light), trypan blue exclusion", "assay_type": "cell-based, Human", "conditions": "K-562 cells, external ambient fluorescent light", "description": "as §1, §2"}, "FL cells [2]": {"system": "FL cells", "conditions": "in the dark"}}}
{"compound": "CC1=C(CCC(=O)O)c2cc3[nH]c(cc4nc(cc5[nH]c(cc1n2)c(C)c5C(C)O)C(C)=C4C(C)O)c(C)c3CCC(=O)O", "note": "(stereo not drawn) [Hp, hematoporphyrin]", "values": [{"measurement": "maximum cytotoxicity (LDMAX)", "setting": "FL cells [1]; FL cells, external ambient fluorescent light", "result": 90, "unit": "%"}, {"measurement": "sensitivity of FL cells relative to K-562 at LDMAX", "setting": "FL cells [1]; free Hp treatment, FL versus K-562", "result": 16.6}, {"measurement": "maximum activity (cytotoxicity)", "setting": "FL cells [1]; optimization of the LTC cytotoxicity assay, about 2 hr exposure, cell line not stated", "result": 24, "unit": "%"}, {"measurement": "maximum cytotoxicity (LDMAX)", "setting": "K562 cells", "result": 90, "unit": "%"}, {"measurement": "maximum cytotoxicity together with luminol", "setting": "FL cells [2]; together with 10 μM luminol, no external light", "result": 30, "unit": "%"}]}
{"compound": "Nc1cccc2c(=O)[nH][nH]c(=O)c12", "note": "[luminol, 5-amino-2-3-dihydro-1,4-phtalazinedione]", "values": [{"measurement": "cytotoxicity, luminol alone", "setting": "FL cells [2]; 10 μM luminol, no Ps", "result": "about 15%"}]}
